Data as given in US6750228B1, “Aromatic sulfone hydroxamic acid metalloprotease inhibitor” (priority 1997, dated 2004).

What was measured:
Experiment in all cases: biochemical
MMP-2 = molecular target: T1, MMP-2 (Homo sapiens, UniProt P08253); conditions: recombinant human MMP-2, MCA peptide substrate 4 μM, pH 7.5, room temperature; read-out: MMP-2 IC50
T1 construct: made in house; provided by Dr. Gregory Goldberg, Washington University
T1 sequence (P08253 110-660): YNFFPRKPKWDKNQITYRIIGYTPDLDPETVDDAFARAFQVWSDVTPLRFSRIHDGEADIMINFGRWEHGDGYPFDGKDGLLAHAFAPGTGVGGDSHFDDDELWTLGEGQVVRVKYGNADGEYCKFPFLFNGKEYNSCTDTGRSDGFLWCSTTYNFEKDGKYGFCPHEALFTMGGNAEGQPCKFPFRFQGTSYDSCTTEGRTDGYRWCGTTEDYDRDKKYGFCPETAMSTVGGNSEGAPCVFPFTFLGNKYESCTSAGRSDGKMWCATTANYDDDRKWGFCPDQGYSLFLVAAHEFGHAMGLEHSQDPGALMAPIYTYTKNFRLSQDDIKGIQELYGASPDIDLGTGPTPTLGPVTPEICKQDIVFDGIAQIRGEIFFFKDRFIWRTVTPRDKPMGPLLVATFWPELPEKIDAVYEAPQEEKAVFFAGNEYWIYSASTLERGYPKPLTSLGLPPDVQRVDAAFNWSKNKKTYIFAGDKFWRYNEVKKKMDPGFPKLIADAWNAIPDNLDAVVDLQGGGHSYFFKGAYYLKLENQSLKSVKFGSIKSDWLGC
How it was run: (§1)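 APMA- or trypsin-activated human MMPs (MMP-1 from transfected HT-1080 cells, MMP-2 from transfected cells) preincubated with inhibitor in 1% DMSO at room temperature, then 4 μM MCA-Pro-Leu-Gly-Leu-Dpa-Ala-Arg-NH2 added in Tris/NaCl/CaCl2 buffer pH 7.5. IC50 from fluorescence reduction versus inhibitor concentration.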

MMP-13 = molecular target: T2, MMP-13 (Homo sapiens, UniProt P45452); conditions: recombinant human MMP-13, MCA peptide substrate 4 μM, pH 7.5, room temperature; read-out: MMP-13 IC50
T2 construct: made in house; host or cells: baculovirus / insect cells
How it was run: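 APMA- or trypsin-activated enzymes were preincubated with inhibitor for 5 min at room temperature, then the fluorogenic substrate MCA-Pro-Leu-Gly-Leu-Dpa-Ala-Arg-NH2 was added to a final 4 μM.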

MMP-1 = molecular target: T3, MMP-1 (Homo sapiens, UniProt P03956); conditions: recombinant human MMP-1, MCA peptide substrate 4 μM, pH 7.5, room temperature; read-out: MMP-1 IC50
T3 construct: made in house; host or cells: transfected HT-1080 cells (provided by Dr. Harold Welgus, Washington University)
T3 sequence (P03956 100-469): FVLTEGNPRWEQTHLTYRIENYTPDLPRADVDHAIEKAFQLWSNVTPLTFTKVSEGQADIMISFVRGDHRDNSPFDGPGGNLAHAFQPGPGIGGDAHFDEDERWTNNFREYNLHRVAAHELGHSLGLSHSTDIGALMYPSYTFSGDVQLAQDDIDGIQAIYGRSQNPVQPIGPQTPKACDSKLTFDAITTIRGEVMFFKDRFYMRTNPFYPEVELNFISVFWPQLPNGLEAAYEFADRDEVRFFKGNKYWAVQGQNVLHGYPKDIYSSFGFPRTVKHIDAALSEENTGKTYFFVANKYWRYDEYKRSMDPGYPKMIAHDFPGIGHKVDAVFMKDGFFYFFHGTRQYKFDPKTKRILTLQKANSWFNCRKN
How it was run: as §1

Structure (SMILES)	IC50 (MMP-2)	IC50 (MMP-13)	IC50 (MMP-1)
N#Cc1ccc(S(=O)(=O)N2CCN(c3ccc(S(=O)(=O)C4(C(=O)NO)CCOCC4)cc3)CC2)cc1 [Example 690]	41.8 nM	7.3 nM	> 10000 nM
O=C(NO)C1(S(=O)(=O)c2ccc(N3CCN(S(=O)(=O)c4cccc5nsnc45)CC3)cc2)CCOCC1 [Example 691]	130 nM	10 nM	> 10000 nM
O=C(NO)C1(S(=O)(=O)c2ccc(N3CCC4CCCCC4C3)cc2)CCOCC1 (stereo not drawn) [Example 692]	22.7 nM	10 nM	> 10000 nM
O=C(NO)C1(S(=O)(=O)c2ccc(N3CCCN(S(=O)(=O)c4ccc(C(F)(F)F)cc4)CC3)cc2)CCOCC1 [Example 697]	1500 nM	18.1 nM	> 10000 nM
O=C(c1cc(F)cc(F)c1)C1CCN(c2ccc(S(=O)(=O)C3(C(=O)NO)CCOCC3)cc2)CC1 [Example 724]	300 nM	28.6 nM	> 10000 nM
O=C(c1cccc(OC(F)(F)F)c1)C1CCN(c2ccc(S(=O)(=O)C3(C(=O)NO)CCOCC3)cc2)CC1 [Example 725]	210 nM	25.1 nM	> 10000 nM
O=C(c1ccc(OC(F)(F)F)cc1)C1CCN(c2ccc(S(=O)(=O)C3(C(=O)NO)CCOCC3)cc2)CC1 [Example 726]	250 nM	15.8 nM	> 10000 nM
O=C(c1cccc(C(F)(F)F)c1)C1CCN(c2ccc(S(=O)(=O)C3(C(=O)NO)CCOCC3)cc2)CC1 [Example 727]	240 nM	34.9 nM	> 10000 nM
O=C(c1cccc(F)c1)C1CCN(c2ccc(S(=O)(=O)C3(C(=O)NO)CCOCC3)cc2)CC1 [Example 728]	106 nM	9.4 nM	> 10000 nM
O=C(c1ccc(C(F)(F)F)cc1)C1CCN(c2ccc(S(=O)(=O)C3(C(=O)NO)CCOCC3)cc2)CC1 [Example 729]	240 nM	14.8 nM	> 10000 nM
Cc1cc(C)cc(C(=O)C2CCN(c3ccc(S(=O)(=O)C4(C(=O)NO)CCOCC4)cc3)CC2)c1 [Example 730]	3000 nM	37 nM	> 10000 nM
CCc1cccc(C(=O)C2CCN(c3ccc(S(=O)(=O)C4(C(=O)NO)CCOCC4)cc3)CC2)c1 [Example 732]	590 nM	3.1 nM	> 10000 nM
CCc1ccc(C(=O)C2CCN(c3ccc(S(=O)(=O)C4(C(=O)NO)CCOCC4)cc3)CC2)cc1 [Example 733]	270 nM	1.6 nM	> 10000 nM
COc1ccc(C(=O)C2CCN(c3ccc(S(=O)(=O)C4(C(=O)NO)CCOCC4)cc3)CC2)cc1F [Example 735]	800 nM	9 nM	> 10000 nM
Cc1ccc(C(=O)C2CCN(c3ccc(S(=O)(=O)C4(C(=O)NO)CCOCC4)cc3)CC2)cc1F [Example 736]	145 nM	0.9 nM	> 10000 nM
Cc1ccc(C(=O)C2CCN(c3ccc(S(=O)(=O)C4(C(=O)NO)CCOCC4)cc3)CC2)cc1C [Example 737]	1280 nM	3 nM	> 10000 nM
O=C(c1ccc(C(F)(F)F)c(F)c1)C1CCN(c2ccc(S(=O)(=O)C3(C(=O)NO)CCOCC3)cc2)CC1 [Example 738]	270 nM	22 nM	> 10000 nM
CCCCCC(=O)C1CCN(c2ccc(S(=O)(=O)C3(C(=O)NO)CCOCC3)cc2)CC1 [Example 755]	20 nM	2.2 nM	> 10000 nM
CCCCC(=O)C1CCN(c2ccc(S(=O)(=O)C3(C(=O)NO)CCOCC3)cc2)CC1 [Example 757]	28.8 nM	3.3 nM	> 10000 nM
C=CCCC(=O)C1CCN(c2ccc(S(=O)(=O)C3(C(=O)NO)CCOCC3)cc2)CC1 [Example 758]	34.7 nM	5 nM	> 10000 nM
CC(C)(Cl)CC(=O)C1CCN(c2ccc(S(=O)(=O)C3(C(=O)NO)CCOCC3)cc2)CC1 [Example 760]	25.4 nM	6 nM	> 10000 nM
C/C=C/CC(=O)C1CCN(c2ccc(S(=O)(=O)C3(C(=O)NO)CCOCC3)cc2)CC1 [Example 761]	41.8 nM	5 nM	> 10000 nM

The remaining lines, values ahead:

IC50 (MMP-2)	IC50 (MMP-13)	IC50 (MMP-1)	Structure (SMILES)
290 nM	11.3 nM	> 10000 nM	COc1ccc(S(=O)(=O)N2CCN(c3ccc(S(=O)(=O)C4(C(=O)NO)CCOCC4)cc3)CC2)cc1OC [Example 683]
34.7 nM	3 nM	> 10000 nM	O=C(NO)C1(S(=O)(=O)c2ccc(N3CCN(S(=O)(=O)c4cccs4)CC3)cc2)CCOCC1 [Example 685]
110 nM	17.6 nM	> 10000 nM	O=C(NO)C1(S(=O)(=O)c2ccc(OC3CCC(OCc4ccccc4Cl)C3)cc2)CCOCC1 (stereo not drawn) [Example 688]
1900 nM	210 nM	> 10000 nM	CC(C)(C)OC1CCN(c2ccc(S(=O)(=O)C3(C(=O)NO)CCOCC3)cc2)CC1 [Example 693]
23.2 nM	3.1 nM	> 10000 nM	COc1cccc(COC2CCC(Oc3ccc(S(=O)(=O)C4(C(=O)NO)CCOCC4)cc3)C2)c1 (stereo not drawn) [Example 694]
22.7 nM	2 nM	> 10000 nM	O=C(NO)C1(S(=O)(=O)c2ccc(N3CCN(c4ccc(OC(F)(F)F)cc4)CC3)cc2)CCOCC1 [Example 695]
140 nM	10 nM	> 10000 nM	COc1cccc(S(=O)(=O)N2CCN(c3ccc(S(=O)(=O)C4(C(=O)NO)CCOCC4)cc3)CC2)c1 [Example 696]
700 nM	16.9 nM	> 10000 nM	COc1ccc(S(=O)(=O)N2CCCN(c3ccc(S(=O)(=O)C4(C(=O)NO)CCOCC4)cc3)CC2)cc1 [Example 698]
455 nM	50 nM	> 10000 nM	O=C(NO)C1(S(=O)(=O)c2ccc(N3CCCN(S(=O)(=O)c4ccc(OC(F)(F)F)cc4)CC3)cc2)CCOCC1 [Example 699]
40 nM	4.3 nM	> 10000 nM	Cc1cccc(COC2CCC(Oc3ccc(S(=O)(=O)C4(C(=O)NO)CCOCC4)cc3)C2)c1 (stereo not drawn) [Example 706]
9 nM	2.3 nM	> 10000 nM	O=C(NO)C1(S(=O)(=O)c2ccc(N3CCC(SCc4ccccc4)CC3)cc2)CCOCC1 [Example 707]
3000 nM	114 nM	> 10000 nM	O=C(NO)C1(S(=O)(=O)c2ccc(N3CCCN(c4ccc(OC(F)(F)F)cc4)CC3)cc2)CCOCC1 [Example 708]
420 nM	28.8 nM	> 10000 nM	O=C(NO)C1(S(=O)(=O)c2ccc(OC3CCC(OCc4cccc(OC(F)(F)F)c4)C3)cc2)CCOCC1 (stereo not drawn) [Example 714]
36.9 nM	4.5 nM	> 10000 nM	O=C(NO)C1(S(=O)(=O)c2ccc(N3CCC(Cc4ccccc4)CC3)cc2)CCOCC1 [Example 720]
175 nM	61 nM	> 10000 nM	COc1ccccc1COC1CCC(Oc2ccc(S(=O)(=O)C3(C(=O)NO)CCOCC3)cc2)C1 (stereo not drawn) [Example 740]
125 nM	50 nM	> 10000 nM	COc1ccccc1COC1CCC(Oc2ccc(S(=O)(=O)C3(C(=O)NO)CCOCC3)cc2)C1 (stereo not drawn) [Example 741]
271 nM	14.8 nM	> 10000 nM	O=C(NC1CCN(c2ccc(S(=O)(=O)C3(C(=O)NO)CCOCC3)cc2)CC1)c1ccc(OC(F)(F)F)cc1 [Example 752]
28.8 nM	7 nM	> 10000 nM	CC(C)CC(=O)C1CCN(c2ccc(S(=O)(=O)C3(C(=O)NO)CCOCC3)cc2)CC1 [Example 756]
60.8 nM	3 nM	> 10000 nM	C=C(C)CC(=O)C1CCN(c2ccc(S(=O)(=O)C3(C(=O)NO)CCOCC3)cc2)CC1 [Example 759]
